From the supplement of paper PMC13207355

Tests used:
Settings in all cases: exposure time: 72 h
[1] = system: E13 (patient-derived glioblastoma stem cells of classical subtype); experiment: surviving fraction (nuclei count normalised to DMSO); higher = more cells surviving (less toxic)
[2] = system: E21 (patient-derived glioblastoma stem cells of mesenchymal subtype); experiment: as above
[3] = system: E28 (patient-derived glioblastoma stem cells of classical subtype); experiment: as above
[4] = system: E31 (patient-derived glioblastoma stem cells of proneural subtype); experiment: as above
[5] = system: E34 (patient-derived glioblastoma stem cells of proneural subtype); experiment: as above
[6] = system: E57 (patient-derived glioblastoma stem cells of mesenchymal subtype); experiment: as above
[7] = system: FT3469 (normal neural stem cell line); experiment: as above
[8] = system: E13; experiment: phenotypic distance (Euclidean, principal components) from DMSO controls (arbitrary units); higher = stronger morphological change
[9] = system: E21; experiment: as above
[10] = system: E28; experiment: as above
[11] = system: E31; experiment: as above
[12] = system: E34; experiment: as above
[13] = system: E57; experiment: as above
[14] = system: FT3469; experiment: as above
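For phenotypic distance (Euclidean, principal components) from DMSO controls in this document: cell Painting imaging in 384-well plates, CellProfiler features reduced to at least 20 principal components, Euclidean distance versus same-plate DMSO vehicle wells (0.1% v/v), median over six images per well.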
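For surviving fraction (nuclei count normalised to DMSO) in this document: nuclei counted by high-content imaging of Hoechst-stained cells in laminin-coated 384-well plates, relative to 0.1% DMSO vehicle wells, with staurosporine as cell-death control.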

COc1c(N2CCNC(C)C2)c(F)cc2c(=O)c(C(=O)O)cn(C3CC3)c12 (stereo not drawn) [Gatifloxacin]
surviving fraction ([1]; 4.1 nM): 0.802
surviving fraction ([1]; 12.3 nM): 0.892
surviving fraction ([1]; 37 nM): 0.946
surviving fraction ([1]; 111.1 nM): 0.909
surviving fraction ([1]; 333.3 nM): 1.06
surviving fraction ([1]; 1000 nM): 0.806
surviving fraction ([1]; 3000 nM): 0.89
surviving fraction ([2]; 4.1 nM): 0.949
surviving fraction ([2]; 12.3 nM): 0.874
surviving fraction ([2]; 37 nM): 0.875
surviving fraction ([2]; 111.1 nM): 0.802
surviving fraction ([2]; 333.3 nM): 0.988
surviving fraction ([2]; 1000 nM): 0.814
surviving fraction ([2]; 3000 nM): 0.929
surviving fraction ([3]; 4.1 nM): 0.883
surviving fraction ([3]; 12.3 nM): 0.852
surviving fraction ([3]; 37 nM): 0.951
surviving fraction ([3]; 111.1 nM): 0.859
surviving fraction ([3]; 333.3 nM): 0.769
surviving fraction ([3]; 1000 nM): 0.982
surviving fraction ([3]; 3000 nM): 1.01
surviving fraction ([4]; 4.1 nM): 1.03
surviving fraction ([4]; 12.3 nM): 0.99
surviving fraction ([4]; 37 nM): 0.946
surviving fraction ([4]; 111.1 nM): 0.898
surviving fraction ([4]; 333.3 nM): 1.01
surviving fraction ([4]; 1000 nM): 1.04
surviving fraction ([4]; 3000 nM): 1.24
surviving fraction ([5]; 4.1 nM): 0.932
surviving fraction ([5]; 12.3 nM): 0.945
surviving fraction ([5]; 37 nM): 1.06
surviving fraction ([5]; 111.1 nM): 0.967
surviving fraction ([5]; 333.3 nM): 1.09
surviving fraction ([5]; 1000 nM): 0.908
surviving fraction ([5]; 3000 nM): 0.955
surviving fraction ([6]; 4.1 nM): 0.966
surviving fraction ([6]; 12.3 nM): 1.04
surviving fraction ([6]; 37 nM): 0.993
surviving fraction ([6]; 111.1 nM): 1.05
surviving fraction ([6]; 333.3 nM): 1.06
surviving fraction ([6]; 1000 nM): 1.05
surviving fraction ([6]; 3000 nM): 1.05
surviving fraction ([7]; 4.1 nM): 0.737
surviving fraction ([7]; 12.3 nM): 0.928
surviving fraction ([7]; 37 nM): 0.867
surviving fraction ([7]; 111.1 nM): 0.774
surviving fraction ([7]; 333.3 nM): 0.957
surviving fraction ([7]; 1000 nM): 0.995
surviving fraction ([7]; 3000 nM): 0.79
phenotypic distance ([8]; 4.1 nM): 0.675
phenotypic distance ([8]; 12.3 nM): 0.638
phenotypic distance ([8]; 37 nM): 0.734
phenotypic distance ([8]; 111.1 nM): 0.5
phenotypic distance ([8]; 333.3 nM): 0.838
phenotypic distance ([8]; 1000 nM): 0.825
phenotypic distance ([8]; 3000 nM): 0.702
phenotypic distance ([9]; 4.1 nM): 1
phenotypic distance ([9]; 12.3 nM): 0.609
phenotypic distance ([9]; 37 nM): 0.741
phenotypic distance ([9]; 111.1 nM): 0.873
phenotypic distance ([9]; 333.3 nM): 0.581
phenotypic distance ([9]; 1000 nM): 1
phenotypic distance ([9]; 3000 nM): 0.84
phenotypic distance ([10]; 4.1 nM): 0.347
phenotypic distance ([10]; 12.3 nM): 0.661
phenotypic distance ([10]; 37 nM): 0.66
phenotypic distance ([10]; 111.1 nM): 0.527
phenotypic distance ([10]; 333.3 nM): 0.675
phenotypic distance ([10]; 1000 nM): 0.514
phenotypic distance ([10]; 3000 nM): 0.819
phenotypic distance ([11]; 4.1 nM): 0.659
phenotypic distance ([11]; 12.3 nM): 2.43
phenotypic distance ([11]; 37 nM): 0.809
phenotypic distance ([11]; 111.1 nM): 0.741
phenotypic distance ([11]; 333.3 nM): 0.52
phenotypic distance ([11]; 1000 nM): 0.474
phenotypic distance ([11]; 3000 nM): 0.691
phenotypic distance ([12]; 4.1 nM): 0.671
phenotypic distance ([12]; 12.3 nM): 0.619
phenotypic distance ([12]; 37 nM): 0.973
phenotypic distance ([12]; 111.1 nM): 0.498
phenotypic distance ([12]; 333.3 nM): 0.426
phenotypic distance ([12]; 1000 nM): 0.62
phenotypic distance ([12]; 3000 nM): 0.52
phenotypic distance ([13]; 4.1 nM): 0.413
phenotypic distance ([13]; 12.3 nM): 0.404
phenotypic distance ([13]; 37 nM): 0.488
phenotypic distance ([13]; 111.1 nM): 0.447
phenotypic distance ([13]; 333.3 nM): 0.584
phenotypic distance ([13]; 1000 nM): 0.465
phenotypic distance ([13]; 3000 nM): 0.475
phenotypic distance ([14]; 4.1 nM): 1.03
phenotypic distance ([14]; 12.3 nM): 0.624
phenotypic distance ([14]; 37 nM): 0.658
phenotypic distance ([14]; 111.1 nM): 0.568
phenotypic distance ([14]; 333.3 nM): 0.713
phenotypic distance ([14]; 1000 nM): 0.561
phenotypic distance ([14]; 3000 nM): 1.24
